Reference: PubChem BioAssay AID256 (DTP/NCI, 2004)
“And” between values parts separate entries of the source, which are not always exact repeats. Equal entries are not always repeated. Inconclusive results and toxic doses are left out.

System: CD2F1 mice, L1210 leukemia ip, survival T/C
Experiment: NCI In Vivo Anticancer Drug Screen. Data for tumor model L1210 Leukemia (intraperitoneal) in CD2F1 (CDF1) mice
Conditions: higher = longer survival
Procedure, shortened: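 Mice carrying a transplanted tumor received test compound or vehicle alone. The value is the measurement in the treated group divided by that in the vehicle-treated control group.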

[1] = endpoint: mean survival time, dose: 100.0 mg/kg/injection, schedule: Q04DX002 (ip), vehicle: saline with Tween-80
[2] = endpoint: mean survival time, dose: 200.0 mg/kg/injection, schedule: Q04DX002 (ip), vehicle: saline with Tween-80
[3] = endpoint: mean survival time, dose: 400.0 mg/kg/injection, schedule: Q04DX002 (ip), vehicle: saline with Tween-80
[4] = endpoint: mean survival time, dose: 12.5 mg/kg/injection, schedule: Q01DX009 (ip), vehicle: saline
[5] = endpoint: mean survival time, dose: 25.0 mg/kg/injection, schedule: Q01DX009 (ip), vehicle: saline
[6] = endpoint: mean survival time, dose: 50.0 mg/kg/injection, schedule: Q01DX009 (ip), vehicle: saline
[7] = endpoint: mean survival time, dose: 100.0 mg/kg/injection, schedule: Q01DX009 (ip), vehicle: saline with Tween-80
[8] = endpoint: mean survival time, dose: 200.0 mg/kg/injection, schedule: Q01DX009 (ip), vehicle: saline with Tween-80
[9] = endpoint: mean survival time, dose: 400.0 mg/kg/injection, schedule: Q01DX009 (ip), vehicle: saline with Tween-80
[10] = endpoint: mean survival time, dose: 100.0 mg/kg/injection, schedule: Q01DX009 (ip), vehicle: saline
[11] = endpoint: mean survival time, dose: 200.0 mg/kg/injection, schedule: Q01DX009 (ip), vehicle: saline

In the case of C[C@H](N)C(=O)N[C@@H]1[C@H]2C(=C(O)C[C@@H](O)[C@@H]2O)C(=O)O[C@]1(C)C(Cl)Cl, the T/C (endpoint: median survival time, dose: 0.07 mg/kg/injection, schedule: Q03HX024 (ip), vehicle: saline) is reported as 106 % of control, the T/C (endpoint: median survival time, dose: 0.09 mg/kg/injection, schedule: Q01DX009 (ip), vehicle: saline) is reported as 106 % of control and 109 % of control and the T/C (endpoint: median survival time, dose: 0.14 mg/kg/injection, schedule: Q03HX024 (ip), vehicle: saline) is reported as 120 % of control. The T/C (endpoint: median survival time, dose: 0.18 mg/kg/injection, schedule: Q01DX009 (ip), vehicle: saline) was 114 % of control and 118 % of control, the T/C (endpoint: median survival time, dose: 0.19 mg/kg/injection, schedule: Q01DX009 (ip), vehicle: Klucel (hydroxypropylcellulose) (HPC)) was 105 % of control and 110 % of control and 112 % of control and the T/C (endpoint: median survival time, dose: 0.21 mg/kg/injection, schedule: Q03HX008 (ip), vehicle: saline) was 103 % of control. For the same molecule, the T/C (endpoint: median survival time, dose: 0.28 mg/kg/injection, schedule: Q03HX024 (ip), vehicle: saline) was 124 % of control, the T/C (endpoint: median survival time, dose: 0.34 mg/kg/injection, schedule: Q01DX005 (ip), vehicle: saline) was 116 % of control and the T/C (endpoint: median survival time, dose: 0.34 mg/kg/injection, schedule: Q01DX005 (iv), vehicle: saline) was 98 % of control. For the same molecule, the T/C (endpoint: median survival time, dose: 0.37 mg/kg/injection, schedule: Q01DX009 (ip), vehicle: Klucel (hydroxypropylcellulose) (HPC)) was 120 % of control, the T/C (endpoint: median survival time, dose: 0.37 mg/kg/injection, schedule: Q01DX009 (ip), vehicle: saline) was 124 % of control and the T/C (endpoint: median survival time, dose: 0.37 mg/kg/injection, schedule: Q01DX009 (ip), vehicle: water) was 118 % of control. The T/C (endpoint: median survival time, dose: 0.38 mg/kg/injection, schedule: Q01DX009 (ip), vehicle: Klucel (hydroxypropylcellulose) (HPC)) was 117 % of control and 123 % of control and 111 % of control, the T/C (endpoint: median survival time, dose: 0.42 mg/kg/injection, schedule: Q03HX008 (ip), vehicle: saline) was 116 % of control and the T/C (endpoint: median survival time, dose: 0.56 mg/kg/injection, schedule: Q04DX003 (ip), vehicle: saline) was 113 % of control. For the same molecule, the T/C (endpoint: median survival time, dose: 0.68 mg/kg/injection, schedule: Q01DX005 (iv), vehicle: saline) was 109 % of control, the T/C (endpoint: median survival time, dose: 0.75 mg/kg/injection, schedule: Q01DX009 (ip), vehicle: saline) was 150 % of control and 152 % of control and 155 % of control and the T/C (endpoint: median survival time, dose: 1.13 mg/kg/injection, schedule: Q04DX003 (ip), vehicle: saline) was 116 % of control. The T/C (endpoint: median survival time, dose: 1.5 mg/kg/injection, schedule: Q01DX009 (ip), vehicle: saline) was 155 % of control and 176 % of control and 190 % of control, the T/C (endpoint: median survival time, dose: 1.5 mg/kg/injection, schedule: Q01DX009 (ip), vehicle: water) was 153 % of control and the T/C (endpoint: median survival time, dose: 1.69 mg/kg/injection, schedule: Q01DX001 (ip), vehicle: saline) was 112 % of control. For the same molecule, the T/C (endpoint: median survival time, dose: 1.69 mg/kg/injection, schedule: Q01DX001 (iv), vehicle: saline) was 101 % of control, the T/C (endpoint: median survival time, dose: 2.25 mg/kg/injection, schedule: Q04DX003 (ip), vehicle: saline) was 124 % of control and the T/C (endpoint: median survival time, dose: 2.7 mg/kg/injection, schedule: Q01DX005 (ip), vehicle: saline) was 167 % of control. For the same molecule, the T/C (endpoint: median survival time, dose: 3.0 mg/kg/injection, schedule: Q01DX009 (oral), vehicle: saline) was 100 % of control, the T/C (endpoint: median survival time, dose: 3.38 mg/kg/injection, schedule: Q01DX001 (ip), vehicle: saline) was 116 % of control and the T/C (endpoint: median survival time, dose: 3.38 mg/kg/injection, schedule: Q01DX001 (iv), vehicle: saline) was 113 % of control. For the same molecule, the T/C (endpoint: median survival time, dose: 6.0 mg/kg/injection, schedule: Q01DX009 (ip), vehicle: water) was 91 % of control, the T/C (endpoint: median survival time, dose: 6.0 mg/kg/injection, schedule: Q01DX009 (oral), vehicle: saline) was 97 % of control and the T/C (endpoint: median survival time, dose: 12.0 mg/kg/injection, schedule: Q01DX009 (oral), vehicle: saline) was 100 % of control. For the same molecule, the T/C (endpoint: median survival time, dose: 24.0 mg/kg/injection, schedule: Q01DX009 (oral), vehicle: saline) was 112 % of control.

In the case of CC(=O)CC(=O)C(F)(F)F.CC(=O)CC(=O)C(F)(F)F.[O]=[V], the T/C (endpoint: mean survival time, dose: 3.8 mg/kg/injection, schedule: Q01DX009 (ip), vehicle: saline with Tween-80) is reported as 95 % of control, the T/C (endpoint: mean survival time, dose: 7.5 mg/kg/injection, schedule: Q01DX009 (ip), vehicle: saline with Tween-80) is reported as 93 % of control and the T/C (endpoint: mean survival time, dose: 15.0 mg/kg/injection, schedule: Q01DX009 (ip), vehicle: saline with Tween-80) is reported as 92 % of control.

For COC(=O)/C=C/c1ccc(O)cc1, the T/C (endpoint: mean survival time, dose: 100.0 mg/kg/injection, schedule: Q01DX001 (ip), vehicle: saline sonified) was 102 % of control, the T/C [1] was 101 % of control and the T/C (endpoint: mean survival time, dose: 200.0 mg/kg/injection, schedule: Q01DX001 (ip), vehicle: saline sonified) was 102 % of control. The T/C [2] was 101 % of control, the T/C (endpoint: mean survival time, dose: 400.0 mg/kg/injection, schedule: Q01DX001 (ip), vehicle: saline sonified) was 102 % of control and the T/C [3] was 96 % of control.

In the case of CC(C)=CCCc1ccc2c(c1)C(=O)c1ccccc1C2=O, the T/C [1] is reported as 88 % of control, the T/C [2] is reported as 92 % of control and the T/C [3] is reported as 96 % of control.

In the case of c1ccc2c(NCCCCCCCCNc3c4ccccc4nc4ccccc34)c3ccccc3nc2c1, the T/C (endpoint: mean survival time, dose: 1.25 mg/kg/injection, schedule: Q01DX009 (ip), vehicle: Klucel (hydroxypropylcellulose) (HPC)) is reported as 120 % of control, the T/C (endpoint: mean survival time, dose: 2.5 mg/kg/injection, schedule: Q01DX009 (ip), vehicle: Klucel (hydroxypropylcellulose) (HPC)) is reported as 114 % of control and 100 % of control and the T/C (endpoint: mean survival time, dose: 5.0 mg/kg/injection, schedule: Q01DX009 (ip), vehicle: Klucel (hydroxypropylcellulose) (HPC)) is reported as 119 % of control and 120 % of control and 111 % of control. The T/C (endpoint: mean survival time, dose: 10.0 mg/kg/injection, schedule: Q01DX009 (ip), vehicle: Klucel (hydroxypropylcellulose) (HPC)) was 109 % of control and 111 % of control and the T/C (endpoint: mean survival time, dose: 20.0 mg/kg/injection, schedule: Q01DX009 (ip), vehicle: Klucel (hydroxypropylcellulose) (HPC)) was 117 % of control.

With CC(=O)NCNC(C)=O the T/C (endpoint: mean survival time, dose: 100.0 mg/kg/injection, schedule: Q01DX001 (ip), vehicle: saline) was 100 % of control, the T/C (endpoint: mean survival time, dose: 200.0 mg/kg/injection, schedule: Q01DX001 (ip), vehicle: saline) was 93 % of control and the T/C (endpoint: mean survival time, dose: 400.0 mg/kg/injection, schedule: Q01DX001 (ip), vehicle: saline) was 100 % of control.

With C1CNC(SCCOCCOCCSC2=NCCN2)=N1 the T/C [4] was 97 % of control, the T/C [5] was 97 % of control and the T/C [6] was 100 % of control.

Cc1cc(C)c(N2C(=O)CC(Sc3ccccc3N)C2=O)c(C)c1 (centres undefined) was tested, and the T/C [7] was 92 % of control, the T/C [8] was 96 % of control and the T/C [9] was 94 % of control.

CN(/N=C/c1ccccc1)C(=N)N was tested, and the T/C (endpoint: mean survival time, dose: 15.62 mg/kg/injection, schedule: Q04DX003 (ip), vehicle: saline) was 101 % of control, the T/C (endpoint: mean survival time, dose: 31.25 mg/kg/injection, schedule: Q04DX003 (ip), vehicle: saline) was 107 % of control and the T/C (endpoint: mean survival time, dose: 62.5 mg/kg/injection, schedule: Q04DX003 (ip), vehicle: saline) was 103 % of control.

With FC(F)(F)C(Cl)Br (centres undefined) the T/C [7] was 98 % of control, the T/C [10] was 97 % of control and the T/C [8] was 96 % of control. For the same molecule, the T/C [11] was 98 % of control, the T/C [9] was 95 % of control and the T/C (endpoint: mean survival time, dose: 400.0 mg/kg/injection, schedule: Q01DX009 (ip), vehicle: saline) was 103 % of control.

BrCC1OCCCO1 was tested, and the T/C (endpoint: mean survival time, dose: 12.5 mg/kg/injection, schedule: Q01DX009 (ip), vehicle: saline with Tween-80) was 105 % of control, the T/C (endpoint: mean survival time, dose: 25.0 mg/kg/injection, schedule: Q01DX009 (ip), vehicle: saline with Tween-80) was 111 % of control and the T/C (endpoint: mean survival time, dose: 50.0 mg/kg/injection, schedule: Q01DX009 (ip), vehicle: saline with Tween-80) was 115 % of control.

In the case of C=C(Br)CNC(=O)NCC, the T/C (endpoint: mean survival time, dose: 25.0 mg/kg/injection, schedule: Q04DX003 (ip), vehicle: saline with Tween-80) is reported as 94 % of control, the T/C (endpoint: mean survival time, dose: 50.0 mg/kg/injection, schedule: Q04DX003 (ip), vehicle: saline with Tween-80) is reported as 105 % of control and the T/C (endpoint: mean survival time, dose: 100.0 mg/kg/injection, schedule: Q04DX003 (ip), vehicle: saline with Tween-80) is reported as 100 % of control.

With COCC/C(COC)=N/N the T/C (endpoint: mean survival time, dose: 100.0 mg/kg/injection, schedule: Q01DX001 (ip), vehicle: saline with Tween-80) was 104 % of control, the T/C [7] was 94 % of control and the T/C (endpoint: mean survival time, dose: 200.0 mg/kg/injection, schedule: Q01DX001 (ip), vehicle: saline with Tween-80) was 108 % of control. The T/C (endpoint: mean survival time, dose: 400.0 mg/kg/injection, schedule: Q01DX001 (ip), vehicle: saline with Tween-80) was 108 % of control.

With COc1ccc(-n2cnc3c(=O)[nH]cnc32)cc1 the T/C [1] was 86 % of control, the T/C [2] was 90 % of control and the T/C [3] was 86 % of control.

In the case of COC1C(/C=C/C(C)=O)OC2OC(C)(C)OC21 (centres undefined), the T/C (endpoint: mean survival time, dose: 6.25 mg/kg/injection, schedule: Q01DX009 (ip), vehicle: saline) is reported as 110 % of control, the T/C [4] is reported as 110 % of control and the T/C [5] is reported as 95 % of control. For the same molecule, the T/C [6] was 103 % of control, the T/C [10] was 109 % of control and the T/C [11] was 116 % of control.

With COP(=O)(NC(C)=O)OC the T/C (endpoint: mean survival time, dose: 50.0 mg/kg/injection, schedule: Q04DX002 (ip), vehicle: saline) was 87 % of control, the T/C (endpoint: mean survival time, dose: 100.0 mg/kg/injection, schedule: Q04DX002 (ip), vehicle: saline) was 93 % of control and the T/C (endpoint: mean survival time, dose: 200.0 mg/kg/injection, schedule: Q04DX002 (ip), vehicle: saline) was 93 % of control. For the same molecule, the T/C (endpoint: mean survival time, dose: 400.0 mg/kg/injection, schedule: Q04DX002 (ip), vehicle: saline) was 96 % of control.
